Target: T1, Wild type glucocorticoid receptor (Rattus norvegicus, UniProt P06536)
T1 construct: Thus the full length receptor was removed from the VARO vector with BamHI and inserted into the SVL vector; expressed in transfected cells; host or cells: COS-7 (cytosol)
T1 sequence (P06536 1-795): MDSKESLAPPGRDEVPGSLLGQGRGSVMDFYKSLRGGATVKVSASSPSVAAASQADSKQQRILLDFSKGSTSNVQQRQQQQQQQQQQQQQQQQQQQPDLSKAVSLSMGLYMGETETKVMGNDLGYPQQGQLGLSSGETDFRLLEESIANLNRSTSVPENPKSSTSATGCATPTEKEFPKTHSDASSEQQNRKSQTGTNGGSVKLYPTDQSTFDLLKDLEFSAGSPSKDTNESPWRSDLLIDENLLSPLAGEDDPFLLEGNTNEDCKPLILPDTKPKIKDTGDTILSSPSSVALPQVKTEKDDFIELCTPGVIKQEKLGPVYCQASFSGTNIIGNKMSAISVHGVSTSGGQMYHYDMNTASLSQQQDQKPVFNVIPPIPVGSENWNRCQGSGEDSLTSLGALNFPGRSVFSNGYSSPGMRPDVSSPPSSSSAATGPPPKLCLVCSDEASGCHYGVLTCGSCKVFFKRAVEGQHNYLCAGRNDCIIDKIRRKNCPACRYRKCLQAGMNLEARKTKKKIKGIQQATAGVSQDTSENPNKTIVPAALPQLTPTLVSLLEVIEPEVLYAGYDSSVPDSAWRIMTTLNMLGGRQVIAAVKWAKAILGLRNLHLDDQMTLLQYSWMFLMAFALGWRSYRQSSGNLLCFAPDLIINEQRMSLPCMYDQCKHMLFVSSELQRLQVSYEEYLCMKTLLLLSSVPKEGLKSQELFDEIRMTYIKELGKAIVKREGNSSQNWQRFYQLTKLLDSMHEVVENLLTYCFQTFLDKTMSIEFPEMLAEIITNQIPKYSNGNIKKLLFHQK
Test: Competition binding assay with [3H]Dex, COS-7 cytosol, wild type receptor
Description: Monolayer cultures of COS-7 cells were grown in DMEM (Gibco) supplemented with 5% fetal bovine serum (FBS) (Biofluids) at 37° C. in a 5% CO2 incubator. Standard calcium phosphate transfection methods were used to introduce the wild type and mutant receptor expression vectors (pSVL) into COS-7 cells (100 mm plates [Costar] at a cell density of about 10^6 /plate were each treated with 10 μg of plasmid DNA). After ~16 hrs of incubation at 37° C. in a 5% CO2 incubator, the excess calcium phosphate and precipitate were removed by washing with phosphate buffered saline (PBS). […]
COS-7 cell cytosol containing the steroid-free receptors was prepared by cell lysis at -80° C. and centrifugation at 15,000 ×g and labeled as described for HTC cells (S. S. Simons and P. A. Miller, Biochem 23:6876-6882 (1984)). […] The specifically bound [^3 H]Dex was determined by first adding a 10% dextran-coated charcoal solution (added volume =20% of reaction solution volume) to remove free steroid and then subtracting the nonspecific binding seen in the presence of excess nonradioactive Dex. […]
The specificity of steroid binding was determined by Rodbard correction (Rodbard, 1973) of the data from a competition binding assay (S. S. Simons et al., Biochem. Biophys. Res. Comm. 86:793-800 (1979); Miller and Simons, 1988). […]

| Compound | Relative Ka of Steroid Binding to Receptor |
| --- | --- |
| C[C@]12CC[C@@H]3c4ccc(O)cc4CC[C@H]3[C@@H]1CC[C@@H]2O [17β-Estradiol, 17β-estradiol] | 0.029 ± 0.006 |
| CC#C[C@]1(O)CC[C@H]2[C@@H]3CCC4=CC(=O)CCC4=C3[C@@H](c3ccc(N(C)C)cc3)C[C@@]21C [RU486] | 3.4 ± 1.2 |
